Structures can show the parent of a compound that is named as a salt. Where two headings read alike, the source gives them in different places.
Legend:
[1] = test system: neonatal mice; test: Sedative activity, observation of orally dosed mice; type: in vivo; conditions: 6 neonatal mice, at 1 mg/kg and at 10 mg/kg, observed for 2 hours versus control mice
Experimental: m-amino Clonidine was administered orally to 6 neonatal mice at 1 mg/kg and at 10 mg/kgwhichwere observed for 2 hours in comparison with control mice.

[2] = test system: piglets; type: in vivo; conditions: groups of 2 piglets; for MEAN SCOUR SCORE ± SEM: score 0-3
[3] = 0.1 mg/kg p.o., duration of test 6 h
[4] = 0.1 mg/kg p.o., duration of test 12 h
[5] = 0.2 mg/kg p.o., duration of test 6 h

**Q.** With `Nc1ccc(Cl)c(N=C2NCCN2)c1Cl` [Example 3, 2-(3-amino-2,6-dichlorophenylimino) imidazolidine] as the compound, how does the sedation [1] read?
**A.** The sedation was “marked sedation”.

**Q.** What does the source list for `Clc1cc(NCc2ccccc2)cc(Cl)c1N=C1NCCN1` [Example 4, 2-(4-Eenzylamino-2,6-dichlorophenylimino)imidazolidine_ hydrochloride]?
**A.** o/o INHIBITION OF SCOUR [2, 3]: 15 o/o; MEAN SCOUR SCORE ± SEM [2, 3]: 2.3 ± 0.5; o/o INHIBITION OF SCOUR [2, 4]: 10 o/o; MEAN SCOUR SCORE ± SEM [2, 4]: 1.9 ± 0.2; o/o INHIBITION OF SCOUR [2, 5]: 41 o/o; MEAN SCOUR SCORE ± SEM [2, 5]: 1.6 ± 0.1; MEAN SCOUR SCORE ± SEM ([2]; 0.2 mg/kg p.o., duration of test 12 h): 1.2 ± 0.2; o/o INHIBITION OF SCOUR ([2]; 0.2 mg/kg p.o., duration of test 12 h, P 0.05): 43 o/o; MEAN SCOUR SCORE ± SEM ([2]; 1 mg/kg p.o., duration of test 6 h): 0.4 ± 0.4; o/o INHIBITION OF SCOUR ([2]; 1 mg/kg p.o., duration of test 6 h, P 0.01): 85 o/o; MEAN SCOUR SCORE ± SEM ([2]; 1 mg/kg p.o., duration of test 12 h): 1.1 ± 0.2; o/o INHIBITION OF SCOUR ([2]; 1 mg/kg p.o., duration of test 12 h, P 0.05): 48 o/o

Reference: patent publication EP0070084A2, “Imidazoline derivatives” (BEECHAM GROUP PLC, priority 1981, dated 1983)
